In patent US11648254B2 (Kumquat Biosciences Inc., priority 2021, dated 2023) one finds IC50 data, which are given here for 17 molecules.

The target in assay [1] is SOS1 (Homo sapiens (Human), UniProt Q07889). As to the kind of experiment: Ras-SOS interaction assay (HTRF). Format: biochemical. A general note: In TR-FRET formats the signal depends on donor and acceptor labels being close together.
In assay [2] the test system is NCI-H1975 cells (EGFR T790M L858R). As to the kind of experiment: EGFR-SOS cellular inhibition assay (CellTiter-Glo, 3D). Format: cell-based. The settings on record: Homo sapiens. Background: Cellular ATP, detected with luciferase, serves as a proxy for viable cell number.
The subject of assay [3] is MIA PaCa-2 cells (K-Ras G12C). As to the kind of experiment: Ras-SOS cellular growth inhibition assay (CellTiter-Glo, 3D). Format: cell-based. The settings on record: Homo sapiens. A digest of the protocol: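 Growth read by CellTiter-Glo luminescence about 5 days after dosing with 3-fold dilutions (9 points), added one day post-seeding. Cells: MIA PaCa-2, 3D culture on ultra-low-attachment surface, medium DMEM/Ham's F12 plus 10% FCS and 2.5% horse serum; IC50 by four-parameter fit.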

Setting [4] is: K-RasG13D utilized, read-out: IC50 inhibition of SOS.
Where [5] appears, read: K-RasG13D, read-out: IC50 value against SOS1.
Where [6] appears, read: 120 h, NCI-H1975, 3D proliferation, about 5 days, read-out: Bio-Cell-Prolif-3D (H1975 IC50).
The mark [7] stands for this setting: NCI-H1975, EGFR T790M L858R, read-out: IC50 in inhibiting growth of NCI-H1975 cell line.
Where [8] appears, read: MIA PaCa-2, 120 h, MIA PaCa-2, 3D proliferation, about 5 days, read-out: Bio-Cell-Prolif-3D (MiaPaca2 IC50).
Where [9] appears, read: MIA PaCa-2, MIA PaCa-2, read-out: IC50 in inhibiting MIA PaCa-2 cell growth.

What is called pIC50 is −log10 of the IC50, conventionally taken in molar units.

SMILES strings stand for the structures. pIC50: −log10 of the molar value. Read-outs that look alike come from different tables or passages of the source. Some results are limits rather than exact numbers.

Sequence of SOS1 (Q07889 564-1049): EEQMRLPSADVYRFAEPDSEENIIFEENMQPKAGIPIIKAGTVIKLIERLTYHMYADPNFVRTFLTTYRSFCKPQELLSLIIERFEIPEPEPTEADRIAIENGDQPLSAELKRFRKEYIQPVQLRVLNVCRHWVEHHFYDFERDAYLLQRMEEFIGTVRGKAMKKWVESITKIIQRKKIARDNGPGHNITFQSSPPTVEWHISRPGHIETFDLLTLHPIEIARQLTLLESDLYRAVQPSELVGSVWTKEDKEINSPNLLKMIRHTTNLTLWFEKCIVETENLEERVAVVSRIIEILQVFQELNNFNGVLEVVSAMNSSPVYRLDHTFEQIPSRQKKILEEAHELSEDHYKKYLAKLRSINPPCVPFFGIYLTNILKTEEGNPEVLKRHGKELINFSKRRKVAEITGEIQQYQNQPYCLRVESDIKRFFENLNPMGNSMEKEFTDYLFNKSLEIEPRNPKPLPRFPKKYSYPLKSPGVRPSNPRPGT

Take `CC(C)N1CCC(C(F)(F)c2cccc([C@@H](C)Nc3ncnc4nc(Cl)c(N5CCN(C(C)C)CC5)cc34)c2F)CC1` [Compound 224, (R)-7-chloro-N-(1-(3-(difluoro(1-isopropylpiperidin-4-yl)methyl)-2-fluorophenyl)ethyl)-6-(4-isopropylpiperazin-1-yl)pyrido[2,3-d]pyrimidin-4-amine]: the pIC50 in assay [1] (setting [4]) was > 7.00; in assay [1] (setting [5]), > 7.30; in assay [2] (setting [6]), ≥ 6.00; in assay [2] (setting [7]) it was > 6.30; in assay [3] (setting [8]) it was ≥ 6.00; in assay [3] (setting [9]), > 6.30.
Regarding `Cc1c([C@@H](C)Nc2ncnc3nc(Cl)c(C4(C#N)CC4)cc23)cccc1C(F)(F)F` [Compound 364, (R)-1-(7-chloro-4-((1-(2-methyl-3-(trifluoromethyl)phenyl)ethyl)amino)pyrido[2,3-d]pyrimidin-6-yl) cyclopropane-1-carbonitrile], the pIC50 is 6.00 to 7.00 in assay [1] (setting [4]), ≥ 6.00 in assay [2] (setting [6]), > 6.30 in assay [2] (setting [7]) and 5.00 to 6.00 in assay [3] (setting [8]).
On to `Cc1c([C@@H](C)Nc2ncnc3nc(Cl)c(C4CCS(=O)(=O)CC4)cc23)cccc1C(F)(F)F` [Compound 260, (R)-4-(7-chloro-4-((1-(2-methyl-3-(trifluoromethyl)phenyl)ethyl)amino)pyrido[2,3-d]pyrimidin-6-yl)tetrahydro-2H-thiopyran 1,1-dioxide], for which the pIC50 in assay [1] (setting [4]) is > 7.00; in assay [1] (setting [5]) it was > 7.30; in assay [2] (setting [6]) it was ≥ 6.00; in assay [2] (setting [7]) it was > 6.30; in assay [3] (setting [8]) it was ≥ 6.00; in assay [3] (setting [9]), > 6.30.
In the case of `CCN1CCC(c2cc3c(N[C@H](C)c4cccc(C(F)F)c4F)nc(C)nc3nc2OC2CN(C)C2)CC1` [Compound 318], the pIC50 in assay [1] (setting [4]) was > 7.00; in assay [1] (setting [5]), > 7.30; in assay [2] (setting [6]), ≥ 6.00; in assay [3] (setting [8]), ≥ 6.00.
Take `Cc1nc(N[C@H](C)c2cccc(C(F)(F)F)c2F)c2cc(C3CCS(=O)(=O)CC3)c(OC3CN(C)C3)nc2n1` [Compound 248, (R)-4-(4-((1-(2-fluoro-3-(trifluoromethyl)phenyl)ethyl)amino)-2-methyl-7-((1-methylazetidin-3-yl)oxy)pyrido[2,3-d]pyrimidin-6-yl)tetrahydro-2H-thiopyran 1,1-dioxide]: the negative-log IC50 (pIC50) was > 7.00 in assay [1] (setting [4]); > 7.30 in assay [1] (setting [5]); ≥ 6.00 in assay [2] (setting [6]); > 6.30 in assay [2] (setting [7]); ≥ 6.00 in assay [3] (setting [8]); > 6.30 in assay [3] (setting [9]).
For `COc1nc2nc(C)nc(N[C@H](C)c3cccc(C(F)F)c3F)c2cc1C1(C#N)CCOCC1` [Compound 320, (R)-4-(4-((1-(3-(difluoromethyl)-2-fluorophenyl)ethyl)amino)-7-methoxy-2-methylpyrido[2,3-d]pyrimidin-6-yl)tetrahydro-2H-pyran-4-carbonitrile], the negative logarithm of the IC50 (pIC50) was > 7.00 in assay [1] (setting [4]); > 7.30 in assay [1] (setting [5]); ≥ 6.00 in assay [2] (setting [6]); > 6.30 in assay [2] (setting [7]); ≥ 6.00 in assay [3] (setting [8]).
For the molecule `COc1nc2nc(C)nc(N[C@H](C)c3cccc(C(F)(F)C4CCN(C(C)C)CC4)c3F)c2cc1C1CCN(C(C)C)CC1` [Compound 161, (R)-N-(1-(3-(difluoro(1-isopropylpiperidin-4-yl)methyl)-2-fluorophenyl)ethyl)-6-(1-isopropylpiperidin-4-yl)-7-methoxy-2-methylpyrido[2,3-d]pyrimidin-4-amine], the negative logarithm of the IC50 (pIC50) was > 7.00 in assay [1] (setting [4]); > 7.30 in assay [1] (setting [5]); ≥ 6.00 in assay [2] (setting [6]); > 6.30 in assay [2] (setting [7]); ≥ 6.00 in assay [3] (setting [8]); > 6.30 in assay [3] (setting [9]).
Turning to `Cc1nc(N[C@H](C)c2cccc(C(F)(F)C3CCN(C(C)C)CC3)c2F)c2cc(N3CCN(C(C)C)CC3)c(Cl)nc2n1` [Compound 223, (R)-7-chloro-N-(1-(3-(difluoro(1-isopropylpiperidin-4-yl)methyl)-2-fluorophenyl)ethyl)-6-(4-isopropylpiperazin-1-yl)-2-methylpyrido[2,3-d]pyrimidin-4-amine], the pIC50 was > 7.00 in assay [1] (setting [4]); > 7.30 in assay [1] (setting [5]); ≥ 6.00 in assay [2] (setting [6]); > 6.30 in assay [2] (setting [7]); ≥ 6.00 in assay [3] (setting [8]); > 6.30 in assay [3] (setting [9]).
For `COc1nc2nc(C)nc(N[C@H](C)c3cccc(C(F)(F)C4CCN(C)CC4)c3F)c2cc1C1(C#N)CC1` [Compound 210, (R)-1-(4-((1-(3-(difluoro(1-methylpiperidin-4-yl)methyl)-2-fluorophenyl)ethyl)amino)-7-methoxy-2-methylpyrido[2,3-d]pyrimidin-6-yl)cyclopropane-1-carbonitrile], the negative logarithm of the IC50 (pIC50) in assay [1] (setting [4]) was > 7.00; in assay [1] (setting [5]) it was > 7.30; in assay [2] (setting [6]), ≥ 6.00; in assay [2] (setting [7]), > 6.30; in assay [3] (setting [8]), ≥ 6.00; in assay [3] (setting [9]) it was > 6.30.
Turning to `Cc1nc(N[C@H](C)c2cccc(C(F)(F)F)c2F)c2cc(N3CCN(C(C)C)CC3)c(Cl)nc2n1` [Compound 387, (R)-7-chloro-N-(1-(2-fluoro-3-(trifluoromethyl)phenyl)ethyl)-6-(4-isopropylpiperazin-1-yl)-2-methylpyrido[2,3-d] pyrimidin-4-amine], the pIC50 in assay [1] (setting [4]) was > 7.00; in assay [1] (setting [5]) it was > 7.30; in assay [2] (setting [6]), ≥ 6.00; in assay [2] (setting [7]), > 6.30; in assay [3] (setting [8]), ≥ 6.00; in assay [3] (setting [9]) it was > 6.30.
With `Cc1nc(N[C@H](C)c2cccc(C(F)F)c2F)c2cc(S(=O)(=O)C3CCN(C)CC3)c(Cl)nc2n1` [Compound 132, (R)-7-chloro-N-(1-(3-(difluoromethyl)-2-fluorophenyl)ethyl)-2-methyl-6-((1-methylpiperidin-4-yl)sulfonyl)pyrido[2,3-d]pyrimidin-4-amine], the pIC50 in assay [1] (setting [5]) was > 7.30; in assay [2] (setting [6]), ≥ 6.00; in assay [2] (setting [7]) it was > 6.30; in assay [3] (setting [8]) it was ≥ 6.00; in assay [3] (setting [9]) it was > 6.30.
Take `Cc1nc(N[C@H](C)c2cccc(C(F)(F)CO)c2)c2cc(C3(C#N)CC3)c(Cl)nc2n1` [Compound 194, (R)-1-(7-chloro-4-((1-(3-(1,1-difluoro-2-hydroxyethyl)phenyl)ethyl)amino)-2-methylpyrido[2,3-d]pyrimidin-6-yl)cyclopropane-1-carbonitrile]: the negative logarithm of the IC50 (pIC50) in assay [1] (setting [4]) was > 7.00; in assay [1] (setting [5]), > 7.30; in assay [2] (setting [6]), ≥ 6.00; in assay [3] (setting [8]) it was ≥ 6.00; in assay [3] (setting [9]) it was > 6.30.
Take `COc1nc2nc(C)nc(N[C@H](C)c3cccc(C(F)(F)CCC4CN(C(C)C)C4)c3F)c2cc1C1CCS(=O)(=O)CC1` [Compound 238, (R)-4-(4-((1-(3-(1,1-difluoro-3-(1-isopropylazetidin-3-yl)propyl)-2-fluorophenyl)ethyl)amino)-7-methoxy-2-methylpyrido[2,3-d]pyrimidin-6-yl)tetrahydro-2H-thiopyran 1,1-dioxide]: the pIC50 in assay [1] (setting [4]) was > 7.00; in assay [1] (setting [5]), > 7.30; in assay [2] (setting [6]), ≥ 6.00; in assay [2] (setting [7]), > 6.30; in assay [3] (setting [8]), ≥ 6.00; in assay [3] (setting [9]), > 6.30.
For `C[C@@H](Nc1ncnc2nc(OC3COC3)c(N3CCS(=O)(=O)CC3)cc12)c1cccc(C(F)F)c1F` [Compound 231, (R)-4-(4-((1-(3-(difluoromethyl)-2-fluorophenyl)ethyl)amino)-7-(oxetan-3-yloxy)pyrido[2,3-d]pyrimidin-6-yl)thiomorpholine 1,1-dioxide], the negative-log IC50 (pIC50) was > 7.00 in assay [1] (setting [4]), > 7.30 in assay [1] (setting [5]), 5.00 to 6.00 in assay [2] (setting [6]) and ≥ 6.00 in assay [3] (setting [8]).
Take `Cc1nc(N[C@H](C)c2cccc(C(F)F)c2F)c2cc(C3CCS(=O)(=O)CC3)c(N(C)C)nc2n1` [Compound 143, (R)-4-(4-((1-(3-(difluoromethyl)-2-fluorophenyl)ethyl)amino)-7-(dimethylamino)-2-methylpyrido[2,3-d]pyrimidin-6-yl)tetrahydro-2H-thiopyran 1,1-dioxide]: the pIC50 was > 7.00 in assay [1] (setting [4]); > 7.30 in assay [1] (setting [5]); ≥ 6.00 in assay [2] (setting [6]); > 6.30 in assay [2] (setting [7]); ≥ 6.00 in assay [3] (setting [8]); > 6.30 in assay [3] (setting [9]).
Take `Cc1nc(N[C@H](C)c2cccc(C(F)F)c2F)c2cc(C3CCN(C)CC3)c(OC3CNC3)nc2n1` [Compound 253, (R)-7-(azetidin-3-yloxy)-N-(1-(3-(difluoromethyl)-2-fluorophenyl)ethyl)-2-methyl-6-(1-methylpiperidin-4-yl)pyrido[2,3-d] pyrimidin-4-amine]: the pIC50 in assay [1] (setting [4]) was > 7.00; in assay [1] (setting [5]), > 7.30; in assay [2] (setting [6]), 5.00 to 6.00; in assay [3] (setting [8]) it was 5.00 to 6.00.
As to `COc1nc2nc(C)nc(N[C@H](C)c3cccc(C(F)(F)F)c3F)c2cc1C1CCN(C(C)=O)CC1` [Compound 165, (R)-1-(4-(4-((1-(2-fluoro-3-(trifluoromethyl)phenyl)ethyl)amino)-7-methoxy-2-methylpyrido[2,3-d]pyrimidin-6-yl)piperidin-1-yl)ethan-1-one], the pIC50 in assay [1] (setting [4]) was > 7.00; in assay [1] (setting [5]) it was > 7.30; in assay [2] (setting [6]) it was ≥ 6.00; in assay [2] (setting [7]) it was > 6.30; in assay [3] (setting [8]), ≥ 6.00.
